Experimental data reported in patent US6352959B1, “Thiochromanoylpyrazolone derivatives” (BASF Aktiengesellschaft, priority 1998, dated 2002).

What was measured:
[1] = system: Sinapis alba; assay: greenhouse herbicidal test; type: in vivo; settings: rate and mode not restated in the sentence
Excerpt: (§1) The seeds of the test plants were sown separately for each species. For the post-emergence treatment, the test plants were first grown to a plant height of from 3 to 15 cm, depending on the plant habit, and only then treated with the active ingredients which had been suspended or emulsified in water. For this purpose, the test plants were either sown directly and grown in the same containers, or they were first grown separately as seedlings and transplanted into the test containers a few days prior to treatment. The application rate for the post-emergence treatment was 0.25 or 0.125 kg of a.s. (active substance) per ha. Depending on the species, the plants were kept at from 10 to 25° C. or from 20 to 35° C. The test period extended over 2 to 4 weeks. During this time, the plants were tended and their response to the individual treatments was evaluated. Evaluation was carried out using a scale from 0 to 100. 100 means no emergence of the plants, or complete destruction of at least the above-ground parts, and 0 means no damage or normal course of growth. [table]

[2] = system: Avena fatua; assay: greenhouse herbicidal test; type: in vivo; settings: rate and mode not restated in the sentence
Excerpt: as §1

[3] = system: Polygonum persicaria; assay: greenhouse herbicidal test; type: in vivo; settings: rate and mode not restated in the sentence
Excerpt: as §1

[4] = system: Setaria viridis; assay: greenhouse herbicidal test; type: in vivo; settings: rate and mode not restated in the sentence
Excerpt: as §1

## CCCOCc1c(C(=O)c2cnn(C)c2O)ccc2c1S(=O)(=O)CCC2(C)C [Compound 2.17, 4-{[4,4-Dimethyl-8-propoxymethyl-1,1-dioxothiochroman-7-yl]-carbonyl}-5-hydroxy-1-methylpyrazole]
other
  melting point: 84 °C
[1]
  activity against the weed: very good activity
[2]
  activity against the weed: very good activity
[3]
  activity against the weed: very good activity
[4]
  activity against the weed: very good activity
